{"source": "patent US20250115571A1", "about": "“OXOPIPERAZINE DERIVATIVES” (Inthera Bioscience AG, priority 2017, published 2025)", "experiment_in_all_cases": "5-day cell proliferation assay (CTG)", "format_in_all_cases": "cell-based", "key": {"Caki 2": {"test_system": "Caki 2", "conditions": "Homo sapiens, 120 h, Caki 2, Kidney", "protocol": "(§1) For screening using a proliferation assay, the cells used were cultured at 37° C. with 5% CO2, except for those being cultured with L-15 medium (37° C. and 100% air, TABLE 7). Compound stock solutions (10 mM) were made in sterile water, aliquoted and stored at room temperature. Cisplatin was used as reference Control. Plastic consumables, culture media and supplements were purchased from well-known suppliers (TABLE 8).\n(§2) Cell seeding (day −1). When necessary, cells were trypsinized using standard methods (see e.g. example 01). Cells were collected and resuspended in 5-6 mL of appropriate culture medium, counted and diluted to the needed density. Fifty-four μl (microliter) cells were seeded per well in a 384-well plate. Extra four wells per cell line were seeded on an additional plate for Day 0 reading (baseline cell density). Cells were incubated at 37° C. overnight.\n(§3) Compound treatment and Day 0 reading (day 0). Tenfold final concentration of test compounds and Cisplatin were prepared in cell culture media (work dilutions). Six μl of work dilution solutions were dispensed into the corresponding wells in 384-well plates to bring the total volume up to 60 μl. Conditions were tested in triplicate. The plates were then incubated at 37° C. for five days. For the day 0 reading, 30 μl of CTG and 6 μl cell culture medium were added to the day 0 plates, contents mixed for 2 min on a plate shaker, and the plates incubated for 10 min at room temperature in the dark. Luminescence was recorded on an EnVision Multi Label Reader (2104-0010A, PerkinElmer, USA).\n(§4) Endpoint CTG reading (day 5). The amounts of cells in the plates was determined by endpoint CTG-test. Thirty μl of CTG were added to the 60 μl of cell culture per well, contents mixed for 2 min on a plate shaker, and the plates incubated for 10 min at room temperature in the dark. Luminescence was recorded on an EnVision Multi Label Reader.\n(§5) Data analysis. Fifty percent growth inhibition concentrations (GI50) were calculated based on percentage of control data (untreated cells) from each cell line (TABLE 5 (this example) and TABLE 6). Curves were fitted using a nonlinear regression model with a sigmoidal dose response. Examples of obtained curves are depicted in FIG. 2A-2F."}, "IM95m": {"test_system": "IM95m", "conditions": "Homo sapiens, 120 h, Stomach/Gastric", "protocol": "as §1, §2, §3, §4, §5"}, "HEP-3B": {"test_system": "HEP-3B", "conditions": "Homo sapiens, Hep3B, 120 h, Liver", "protocol": "as §1, §2, §3, §4, §5"}, "SW480": {"test_system": "SW480", "conditions": "Homo sapiens, 120 h, SW480, Colorectal", "protocol": "as §1, §2, §3, §4, §5"}, "KARPAS-299": {"test_system": "KARPAS-299", "conditions": "Homo sapiens, 120 h, KARPAS-299, Lymphoma", "protocol": "as §1, §2, §3, §4, §5"}, "VCAP": {"test_system": "VCAP", "conditions": "Homo sapiens, 120 h, Prostate", "protocol": "as §1, §2, §3, §4, §5"}, "CaSki": {"test_system": "CaSki", "conditions": "Homo sapiens, Ca-Ski, 120 h, Cervix", "protocol": "as §1, §2, §3, §4, §5"}, "Jurkat": {"test_system": "Jurkat", "conditions": "Homo sapiens, 120 h, Leukemia", "protocol": "as §1, §2, §3, §4, §5"}, "SF268": {"test_system": "SF268", "conditions": "Homo sapiens, SF-268, 120 h, SF268, Brain/Nerves", "protocol": "as §1, §2, §3, §4, §5"}, "BT474": {"test_system": "BT474", "conditions": "Homo sapiens, BT-474, 120 h, BT474, Breast", "protocol": "as §1, §2, §3, §4, §5"}, "K562": {"test_system": "K562", "conditions": "Homo sapiens, 120 h, K562, Leukemia", "protocol": "as §1, §2, §3, §4, §5"}, "HUH-7": {"test_system": "HUH-7", "conditions": "Homo sapiens, 120 h, HUH-7, Liver", "protocol": "as §1, §2, §3, §4, §5"}, "MOLT-4": {"test_system": "MOLT-4", "conditions": "Homo sapiens, 120 h, MOLT-4, Leukemia", "protocol": "as §1, §2, §3, §4, §5"}, "H460": {"test_system": "H460", "conditions": "Homo sapiens, NCI-H460, 120 h, H460, Lung", "protocol": "as §1, §2, §3, §4, §5"}, "Granta-519": {"test_system": "Granta-519", "conditions": "Homo sapiens, 120 h, Granta-519, Lymphoma", "protocol": "as §1, §2, §3, §4, §5"}, "MCF7": {"test_system": "MCF7", "conditions": "Homo sapiens, 120 h, MCF7, Breast", "protocol": "as §1, §2, §3, §4, §5"}, "BT-20": {"test_system": "BT-20", "conditions": "Homo sapiens, 120 h, BT-20, Breast", "protocol": "as §1, §2, §3, §4, §5"}, "A375": {"test_system": "A375", "conditions": "Homo sapiens, A-375, 120 h, A375, Skin", "protocol": "as §1, §2, §3, §4, §5"}, "AU565": {"test_system": "AU565", "conditions": "Homo sapiens, 120 h, AU565, Breast", "protocol": "as §1, §2, §3, §4, §5"}, "SK-BR-3": {"test_system": "SK-BR-3", "conditions": "Homo sapiens, 120 h, SK-BR-3, Breast", "protocol": "as §1, §2, §3, §4, §5"}, "Raji": {"test_system": "Raji", "conditions": "Homo sapiens, 120 h, Lymphoma", "protocol": "as §1, §2, §3, §4, §5"}, "SiHa": {"test_system": "SiHa", "conditions": "Homo sapiens, 120 h, Cervix", "protocol": "as §1, §2, §3, §4, §5"}, "KYSE-150": {"test_system": "KYSE-150", "conditions": "Homo sapiens, 120 h, KYSE-150, Oesophagus", "protocol": "as §1, §2, §3, §4, §5"}, "HCC2935": {"test_system": "HCC2935", "conditions": "Homo sapiens, 120 h, HCC2935, Lung, highest tested concentration 10 μM", "protocol": "as §1, §2, §3, §4, §5"}, "Kasumi-1": {"test_system": "Kasumi-1", "conditions": "Homo sapiens, 120 h, Kasumi-1, Leukemia", "protocol": "as §1, §2, §3, §4, §5"}, "MS751": {"test_system": "MS751", "conditions": "Homo sapiens, 120 h, MS751, Cervix", "protocol": "as §1, §2, §3, §4, §5"}, "HCC4006": {"test_system": "HCC4006", "conditions": "Homo sapiens, 120 h, HCC4006, Lung", "protocol": "as §1, §2, §3, §4, §5"}, "HL-60": {"test_system": "HL-60", "conditions": "Homo sapiens, 120 h, HL-60, Leukemia", "protocol": "as §1, §2, §3, §4, §5"}, "Malme-3M": {"test_system": "Malme-3M", "conditions": "Homo sapiens, 120 h, Skin, highest tested concentration 10 μM", "protocol": "as §1, §2, §3, §4, §5"}}, "data": [{"smiles": "CC(C)C[C@@H]1NCCN([C@@H](CC(C)C)C(=O)N2CCC3(C[C@@H]2C)OCC(CN2CCCC2)CO3)C1=O", "note": "(stereo partly drawn) [Compound 258, (3S)-1-[(2S)-4-methyl-1-oxo-1-[(3s,6s,8S)-8-methyl-3-(pyrrolidin-1-ylmethyl)-1,5-dioxa-9-azaspiro[5.5]undec-an-9-yl]pentan-2-yl]-3-(2-methylpropyl)piper-azin-2-one (^≠), isomer Z]", "values": [{"measurement": "GI50", "setting": "Caki 2", "result": 14, "unit": "nM"}, {"measurement": "GI50", "setting": "IM95m", "result": 4, "unit": "nM"}, {"measurement": "GI50", "setting": "HEP-3B", "result": 23, "unit": "nM"}, {"measurement": "GI50", "setting": "SW480", "result": 22, "unit": "nM"}, {"measurement": "GI50", "setting": "KARPAS-299", "result": 5, "unit": "nM"}, {"measurement": "GI50", "setting": "VCAP", "result": 128, "unit": "nM"}, {"measurement": "GI50", "setting": "CaSki", "result": 35, "unit": "nM"}, {"measurement": "GI50", "setting": "Jurkat", "result": 18, "unit": "nM"}, {"measurement": "GI50", "setting": "SF268", "result": 30, "unit": "nM"}, {"measurement": "GI50", "setting": "BT474", "result": 72, "unit": "nM"}, {"measurement": "GI50", "setting": "K562", "result": 17, "unit": "nM"}, {"measurement": "GI50", "setting": "HUH-7", "result": 10, "unit": "nM"}, {"measurement": "GI50", "setting": "MOLT-4", "result": 9, "unit": "nM"}, {"measurement": "GI50", "setting": "H460", "result": 11, "unit": "nM"}, {"measurement": "GI50", "setting": "Granta-519", "result": 38, "unit": "nM"}, {"measurement": "GI50", "setting": "MCF7", "result": 55, "unit": "nM"}, {"measurement": "GI50", "setting": "BT-20", "result": 15, "unit": "nM"}, {"measurement": "GI50", "setting": "A375", "result": 6, "unit": "nM"}, {"measurement": "GI50", "setting": "AU565", "result": 3, "unit": "nM"}, {"measurement": "GI50", "setting": "SK-BR-3", "result": 12, "unit": "nM"}, {"measurement": "GI50", "setting": "Raji", "result": 28, "unit": "nM"}, {"measurement": "GI50", "setting": "SiHa", "result": 52, "unit": "nM"}, {"measurement": "GI50", "setting": "KYSE-150", "result": 11, "unit": "nM"}, {"measurement": "GI50", "setting": "HCC2935", "result": "> 10000", "unit": "nM"}, {"measurement": "GI50", "setting": "Kasumi-1", "result": 19, "unit": "nM"}, {"measurement": "GI50", "setting": "MS751", "result": 51, "unit": "nM"}, {"measurement": "GI50", "setting": "HCC4006", "result": 8, "unit": "nM"}, {"measurement": "GI50", "setting": "HL-60", "result": 5, "unit": "nM"}, {"measurement": "GI50", "setting": "Malme-3M", "result": "> 10000", "unit": "nM"}]}]}
